Results on 30 molecules are retold here after patent US20150031674A1, “SERINE/THREONINE KINASE INHIBITORS” (GENENTECH, INC., priority 2013, published 2015).

Sequence of human recombinant PAK1-KD protein (Q13153 270-521 limits assumed): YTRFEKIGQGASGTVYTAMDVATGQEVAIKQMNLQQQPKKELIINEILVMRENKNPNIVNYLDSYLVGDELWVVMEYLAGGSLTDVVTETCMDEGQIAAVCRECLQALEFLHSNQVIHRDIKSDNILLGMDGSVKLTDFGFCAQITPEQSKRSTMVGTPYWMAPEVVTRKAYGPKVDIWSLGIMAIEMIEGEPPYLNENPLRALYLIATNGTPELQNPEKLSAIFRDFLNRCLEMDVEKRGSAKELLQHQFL

This assay has as its target human recombinant PAK1-KD protein (Homo sapiens, UniProt Q13153). The experiment in a line: PAK1-KD (Kinase Domain) IC50 Zlyte Assay (FRET peptide substrate phosphorylation). The conditions noted are these: Z'-LYTE, Biological Example 1.
Source text: PAK1-KD (Kinase Domain) IC50 Zlyte Assay Protocol
Activity of human recombinant PAK1-KD protein may be assessed in vitro by assay of the phosphorylation of a FRET peptide substrate. Catalytically active human recombinant PAK1-KD protein is obtained by purification from Tini cells infected with a human PAK1-KD recombinant baculovirus expression vector.
The activity/inhibition of PAK1-KD was estimated by measuring the phosphorylation of a FRET peptide substrate (Ser/Thr19) labeled with Coumarin and Fluorescein using Z′-LYTE™ assay (Invitrogen). The peptide substrate is a consensus sequence ([sequence]) based on various PAK substrates reported in the scientific literature. […] Incubations were carried out at 22° C. in black polypropylene 384-well plates (Corning Costar).
As a reminder, the Ki is a measure of affinity in units of concentration, obtained from inhibition or displacement. Regarding `CCNc1ncc2cc(-c3ccc(-c4cccc(C)n4)cc3C)c(=O)n(CC(=O)N3CCNCC3)c2n1` [Example I-93, 2-(Ethylamino)-6-[2-methyl-4-(6-methyl-2-pyridyl)phenyl]-8-(2-oxo-2-piperazin-1-yl-ethyl)pyrido[2,3-d]pyrimidin-7-one], the Ki is 29.1 nM. The figure for `Cc1cccc(-c2ccc(-c3cc4cnc(NC5COC5)nc4n(CC(=O)N4CCNCC4)c3=O)c(Cl)c2)n1` [Example I-94, 6-[2-Chloro-4-(6-methyl-2-pyridyl)phenyl]-2-(oxetan-3-ylamino)-8-(2-oxo-2-piperazin-1-yl-ethyl)pyrido[2,3-d]pyrimidin-7-one] is 15.9 nM.

Turning to `CNc1ncc2cc(-c3ccc(-c4cccc(C)n4)cc3C)c(=O)n(CC(=O)N3CCNCC3)c2n1` [Example I-95, 2-(Methylamino)-6-[2-methyl-4-(6-methyl-2-pyridyl)phenyl]-8-(2-oxo-2-piperazin-1-yl-ethyl)pyrido[2,3-d]pyrimidin-7-one], the Ki worked out at 27.3 nM. The figure for `CNc1ncc2cc(-c3ccc(-c4cccc(C)n4)cc3Cl)c(=O)n(CCOCCN)c2n1` [Example I-96, 8-[2-(2-Aminoethoxy)ethyl]-[2-chloro-4-(6-methyl-2-pyridyl)phenyl]-2-(methylamino)pyrido[2,3-d]pyrimidin-7-one] is 1.4 nM. The figure for `CNc1ncc2cc(-c3ccc(-c4cccc(C)n4)cc3C)c(=O)n(CCOCCN)c2n1` [Example I-97, 8-[2-(2-Aminoethoxy)ethyl]-2-(methylamino)-6-[2-methyl-4-(6-methyl-2-pyridyl)phenyl]pyrido[2,3-d]pyrimidin-7-one] is 3.6 nM.

As to `Cc1cncc(-c2ccc(-c3cc4cnc(NC(C)C)nc4n(CCC4CCNC4=O)c3=O)c(Cl)c2)n1` (stereo not drawn) [Example I-100, 6-[2-Chloro-4-(6-methylpyrazin-2-yl)phenyl]-2-(isopropylamino)-8-[2-(2-oxopyrrolidin-3-yl)ethyl]pyrido[2,3-d]pyrimidin-7-one], the Ki worked out at 18.5 nM. In the case of `CCNc1ncc2cc(-c3ccc(-c4cncc(C)n4)cc3Cl)c(=O)n(CC3(O)CCN(C)CC3)c2n1` [Example I-105, 6-[2-Chloro-4-(6-methylpyrazin-2-yl)phenyl]-2-(ethylamino)-8-[(4-hydroxy-1-methyl-4-piperidyl)methyl]pyrido[2,3-d]pyrimidin-7-one], the Ki was determined as 114 nM. To `Cc1cccc(-c2ccc(-c3cc4cnc(NC5COC5)nc4n(CC(=O)N4CCNCC4)c3=O)c(C)c2)n1` [Example I-106, 6-[2-Methyl-4-(6-methyl-2-pyridyl)phenyl]-2-(oxetan-3-ylamino)-8-(2-oxo-2-piperazin-1-yl-ethyl)pyrido[2,3-d]pyrimidin-7-one] belongs 54.5 nM; to `CNc1ncc2cc(-c3ccc(-c4cccc(C)n4)cc3Cl)c(=O)n(CC(=O)N3CCNCC3)c2n1` [Example I-107, 6-[2-Chloro-4-(6-methyl-2-pyridyl)phenyl]-2-(methylamino)-8-(2-oxo-2-piperazin-1-yl-ethyl)pyrido[2,3-d]pyrimidin-7-one], 14.3 nM; to `CNc1ncc2cc(-c3ccc(-c4cncc(C)n4)cc3Cl)c(=O)n(CCC3CNC(=O)C3)c2n1` (stereo not drawn) [Example I-109, 6-[2-Chloro-4-(6-methylpyrazin-2-yl)phenyl]-2-(methylamino)-8-[2-(5-oxopyrrolidin-3-yl)ethyl]pyrido[2,3-d]pyrimidin-7-one], 43.3 nM. Regarding `CCNc1ncc2cc(-c3ccc(-c4cncc(C)n4)cc3Cl)c(=O)n(CCOC3CC(N)C3)c2n1` (stereo not drawn) [Example I-117, 8-(2-(3-Aminocyclobutoxy)ethyl)-6-(2-chloro-4-(6-methylpyrazin-2-yl)phenyl)-2-(ethylamino)-pyrido[2,3-d]pyrimidin-7(8H)-one], the inhibition constant Ki amounted to 3.7 nM.

For `CCNc1ncc2cc(-c3ccc(-c4cccc(C)n4)cc3Cl)c(=O)n(CC(=O)N3CCOCC3)c2n1` [Example I-120, 6-[2-chloro-4-(6-methyl-2-pyridyl)phenyl]-2-(ethylamino)-8-(2-morpholino-2-oxo-ethyl)pyrido[2,3-d]pyrimidin-7-one], the Ki turned out to be 20.8 nM.

As for `CCNc1ncc2cc(-c3ccc(-c4cccc(C)n4)cc3Cl)c(=O)n(C3COC4(CCNC4)C3)c2n1` (stereo not drawn) [Example I-121, 6-[2-Chloro-4-(6-methyl-2-pyridyl)phenyl]-2-(ethylamino)-8-(1-oxa-7-azaspiro[4.4]nonan-3-yl)pyrido[2,3-d]pyrimidin-7-one], the Ki was found to be 3.7 nM. To `CCNc1ncc2cc(-c3ccc(-c4cccc(C)n4)cc3C)c(=O)n(C3COC4(CCNC4)C3)c2n1` (stereo not drawn) [Example I-122, 2-(Ethylamino)-6-[2-methyl-4-(6-methyl-2-pyridyl)phenyl]-8-(1-oxa-7-azaspiro[4.4]nonan-3-yl)pyrido[2,3-d]pyrimidin-7-one] belongs 4.5 nM; to `CCNc1ncc2cc(-c3ccc(-c4cccc(C)n4)cc3Cl)c(=O)n(CC[C@H](O)CO)c2n1` [Example I-123, 6-[2-Chloro-4-(6-methyl-2-pyridyl)phenyl]-8-[(3S)-3,4-dihydroxybutyl]-2-(ethylamino)pyrido[2,3-d]pyrimidin-7-one], 7.08 nM. Turning to `CCNc1ncc2cc(-c3ccc(-c4cncc(C)n4)cc3Cl)c(=O)n(CC3C4CN(C)CC43)c2n1` (stereo not drawn) [Example I-128, 6-[2-chloro-4-(6-methylpyrazin-2-yl)phenyl]-2-(ethylamino)-8-[(3-methyl-3-azabicyclo[3.1.0]hexan-6-yl)methyl]pyrido[2,3-d]pyrimidin-7-one], the Ki is 11.8 nM. In the case of `CCc1cc(-c2cncc(C)n2)ccc1-c1cc2cnc(NC)nc2n(CCOCCN)c1=O` [Example I-129, 8-[2-(2-aminoethoxy)ethyl]-6-[2-ethyl-4-(6-methylpyrazin-2-yl)phenyl]-2-(methylamino)pyrido[2,3-d]pyrimidin-7-one], the inhibition constant Ki came to 27.5 nM. For the molecule `CCNc1ncc2cc(-c3ccc(-c4cncc(C)n4)cc3Cl)c(=O)n(CCN3CCNC(=O)C3)c2n1` [Example I-130, 6-[2-chloro-4-(6-methylpyrazin-2-yl)phenyl]-2-(ethylamino)-8-[2-(3-oxopiperazin-1-yl)ethyl]pyrido[2,3-d]pyrimidin-7-one], the Ki worked out at 52.2 nM. Turning to `CCc1cc(-c2cncc(C)n2)ccc1-c1cc2cnc(NC)nc2n(CCCN)c1=O` [Example I-131, 8-(3-aminopropyl)-6-[2-ethyl-4-(6-methylpyrazin-2-yl)phenyl]-2-(methylamino)pyrido[2,3-d]pyrimidin-7-one], the inhibitory constant (Ki) was 32.5 nM. The figure for `CNc1ncc2cc(-c3ccc(-c4cccc(C)n4)cc3C)c(=O)n(CCCO)c2n1` [Example I-132, 8-(3-hydroxypropyl)-2-(methylamino)-6-[2-methyl-4-(6-methyl-2-pyridyl)phenyl]pyrido[2,3-d]pyrimidin-7-one] is 14.5 nM; for `Cc1cccc(-c2ccc(-c3cc4cnc(NC5COC5)nc4n(CC[C@H]4OC[C@@H](N)CO4)c3=O)c(Cl)c2)n1` [Example I-133] it is 0.9 nM. The figure for `CNc1ncc2cc(-c3ccc(-c4cccc(C)n4)cc3Cl)c(=O)n(CC[C@H]3OC[C@@H](N)CO3)c2n1` [Example I-134, 8-[2-(5-amino-1,3-dioxan-2-yl)ethyl]-6-[2-chloro-4-(6-methyl-2-pyridyl)phenyl]-2-(methylamino)pyrido[2,3-d]pyrimidin-7-one] is 3.45 nM; for `Cc1cccc(-c2ccc(-c3cc4cnc(NC5COC5)nc4n(CC[C@H]4OC[C@@H](N)CO4)c3=O)c(Cl)c2)n1` [Example I-135, 8-[2-(5-amino-1,3-dioxan-2-yl)ethyl]-6-[2-chloro-4-(6-methyl-2-pyridyl)phenyl]-2-(oxetan-3-ylamino)pyrido[2,3-d]pyrimidin-7-one] it is 0.654 nM; for `CNc1ncc2cc(-c3ccc(-c4cccc(C)n4)cc3Cl)c(=O)n(CC[C@H]3OC[C@H](N)CO3)c2n1` [Example I-137, 8-[2-(5-amino-1,3-dioxan-2-yl)ethyl]-6-[2-chloro-4-(6-methyl-2-pyridyl)phenyl]-2-(methylamino)pyrido[2,3-d]pyrimidin-7-one] it is 0.92 nM.

With `CNc1ncc2cc(-c3ccc(-c4cncc(C)n4)cc3Cl)c(=O)n(CCCCCN)c2n1` [Example I-138, 8-(5-aminopentyl)-6-[2-chloro-4-(6-methylpyrazin-2-yl)phenyl]-2-(methylamino)pyrido[2,3-d]pyrimidin-7-one], the Ki worked out at 9.6 nM. For the molecule `CNc1ncc2cc(-c3ccc(-c4cncc(C)n4)cc3Cl)c(=O)n(CCNCCO)c2n1` [Example I-139, 6-[2-chloro-4-(6-methylpyrazin-2-yl)phenyl]-8-[2-(2-hydroxyethylamino)ethyl]-2-(methylamino)pyrido[2,3-d]pyrimidin-7-one], the Ki is 56 nM. As to `CNc1ncc2cc(-c3ccc(-c4csc(C)n4)cc3Cl)c(=O)n(CCCN)c2n1` [Example I-140, 8-(3-aminopropyl)-6-[2-chloro-4-(2-methylthiazol-4-yl)phenyl]-2-(methylamino)pyrido[2,3-d]pyrimidin-7-one], the inhibition constant Ki was 8.06 nM. The figure for `CNc1ncc2cc(-c3ccc(-c4cccc(C)n4)cc3Cl)c(=O)n(CCS(=O)(=O)N3CCNCC3)c2n1` [Example I-141, 6-[2-chloro-4-(6-methyl-2-pyridyl)phenyl]-2-(methylamino)-8-(2-piperazin-1-ylsulfonylethyl)pyrido[2,3-d]pyrimidin-7-one] is 4 nM; for `CNc1ncc2cc(-c3ccc(-c4cncc(C)n4)cc3Cl)c(=O)n(CC(=O)N[C@H]3CCNC3)c2n1` [Example I-142, 2-[6-[2-chloro-4-(6-methylpyrazin-2-yl)phenyl]-2-(methylamino)-7-oxo-pyrido[2,3-d]pyrimidin-8-yl]-N-[(3S)-pyrrolidin-3-yl]acetamide] it is 14 nM.

Take `CNc1ncc2cc(-c3ccc(-c4cncc(C)n4)cc3Cl)c(=O)n(CC(=O)N3CC[C@H](N)C3)c2n1` [Example I-143, 8-[2-[(3S)-3-Aminopyrrolidin-1-yl]-2-oxo-ethyl]-6-[2-chloro-4-(6-methylpyrazin-2-yl)phenyl]-2-(methylamino)pyrido[2,3-d]pyrimidin-7-one]: the Ki was 12.5 nM.
